# From PubChem BioAssay AID2060895 (Molecular Pharmacology Branch, DTP, NCI, 2025)
# System: PDC 899932-113-R3-J6 complex spheroid viability
# Test: Anticancer human tumor 899932-113-R3-J6-PDC patient-derived melanoma cell line growth inhibition [RAS]
# Conditions: for viability, T/C: stronger effect = lower value
# In short: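 Multi-cell-type spheroids: tumor cells plus HUVEC endothelial cells and mesenchymal stem cells. RAS-pathway inhibitors were combined with targeted agents, each dosed in half-log steps down from clinical Cmax, or from 10 microM when Cmax was unknown.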
# 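Throughout, for viability, T/C: spheroids exposed to agents for seven days before readout; 100% = DMSO vehicle control wells.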
smiles,measurement,setting,value
O=C(c1ccc(F)c(F)c1Nc1ccc(I)cc1F)N1CC(O)([C@@H]2CCCCN2)C1,"viability, T/C",compound 0.00316 µM,74% [middle of 4 runs]
same,"viability, T/C",compound 0.0316 µM,6.94% [middle of 4 runs]
same,"viability, T/C",compound 0.1 µM,3.21% [middle of 4 runs]
same,"viability, T/C",compound 0.316 µM,1.96% [middle of 4 runs]
same,"viability, T/C",compound 1 µM,1.06% [middle of 4 runs]
same,IC50,curve of compound,7.85 nM [middle of 4 runs]
Nc1ccn(C2OC(CO)C(O)C2(F)F)c(=O)n1 (stereo not drawn) + CCn1c(-c2cccnc2C(C)OC)c2c3cc(ccc31)N1CCOC(CC(NC(=O)C(C(C)C)N(C)C(=O)C3(F)CCN(C(=O)C#CC(C)(C)N(C)C)CC3)C(=O)N3CCCC(N3)C(=O)OCC(C)(C)C2)C1,IC50,"curve of first compound, second compound 0.000949 µM",19.8 nM
same,IC50,"curve of first compound, second compound 0.003 µM",20.7 nM
same,IC50,"curve of first compound, second compound 0.00949 µM",20.5 nM
same,IC50,"curve of first compound, second compound 0.03 µM",19.6 nM
same,IC50,"curve of first compound, second compound 0.0949 µM",20.9 nM
same,IC50,"curve of first compound, second compound 0.3 µM",18.3 nM
same,"viability, T/C","second compound 0.000949 µM, first compound 0.00316 µM",103%
same,"viability, T/C","second compound 0.000949 µM, first compound 0.01 µM",71.2%
same,"viability, T/C","second compound 0.000949 µM, first compound 0.0316 µM",35.9%
same,"viability, T/C","second compound 0.000949 µM, first compound 0.1 µM",20.9%
same,"viability, T/C","second compound 0.000949 µM, first compound 0.316 µM",17.4%
same,"viability, T/C","second compound 0.000949 µM, first compound 1 µM",19.2%
same,"viability, T/C","second compound 0.003 µM, first compound 0.00316 µM",99.8%
same,"viability, T/C","second compound 0.003 µM, first compound 0.01 µM",74.8%
same,"viability, T/C","second compound 0.003 µM, first compound 0.0316 µM",36.3%
same,"viability, T/C","second compound 0.003 µM, first compound 0.1 µM",17.1%
same,"viability, T/C","second compound 0.003 µM, first compound 0.316 µM",15.1%
same,"viability, T/C","second compound 0.003 µM, first compound 1 µM",17.8%
same,"viability, T/C","second compound 0.00949 µM, first compound 0.00316 µM",103%
same,"viability, T/C","second compound 0.00949 µM, first compound 0.01 µM",73.7%
same,"viability, T/C","second compound 0.00949 µM, first compound 0.0316 µM",36.4%
same,"viability, T/C","second compound 0.00949 µM, first compound 0.1 µM",19.8%
same,"viability, T/C","second compound 0.00949 µM, first compound 0.316 µM",16.1%
same,"viability, T/C","second compound 0.00949 µM, first compound 1 µM",20.6%
same,"viability, T/C","second compound 0.03 µM, first compound 0.00316 µM",101%
same,"viability, T/C","second compound 0.03 µM, first compound 0.01 µM",70.3%
same,"viability, T/C","second compound 0.03 µM, first compound 0.0316 µM",36.4%
same,"viability, T/C","second compound 0.03 µM, first compound 0.1 µM",19.2%
same,"viability, T/C","second compound 0.03 µM, first compound 0.316 µM",19%
same,"viability, T/C","second compound 0.03 µM, first compound 1 µM",19.8%
same,"viability, T/C","second compound 0.0949 µM, first compound 0.00316 µM",95.2%
same,"viability, T/C","second compound 0.0949 µM, first compound 0.01 µM",73.4%
same,"viability, T/C","second compound 0.0949 µM, first compound 0.0316 µM",37.4%
same,"viability, T/C","second compound 0.0949 µM, first compound 0.1 µM",20.5%
same,"viability, T/C","second compound 0.0949 µM, first compound 0.316 µM",19.3%
same,"viability, T/C","second compound 0.0949 µM, first compound 1 µM",20.1%
same,"viability, T/C","second compound 0.3 µM, first compound 0.00316 µM",84.4%
same,"viability, T/C","second compound 0.3 µM, first compound 0.01 µM",69.4%
same,"viability, T/C","second compound 0.3 µM, first compound 0.0316 µM",32.7%
same,"viability, T/C","second compound 0.3 µM, first compound 0.1 µM",20.8%
same,"viability, T/C","second compound 0.3 µM, first compound 0.316 µM",21.6%
same,"viability, T/C","second compound 0.3 µM, first compound 1 µM",25.9%
